From US20120010266A1, “TBC1D7 AS TUMOR MARKER AND THERAPEUTIC TARGET FOR CANCER” (Oncotherapy Science Inc.,, priority 2008, published 2012) come the findings set out here.

Like-named read-outs stand apart in the source and are kept apart here. No end group written: not given here.

The test system of data set [1] is lung cancer LC319 cells. Put plainly: Dominant-negative peptide assay, MTT, LC319 cells. The note with it: peptide 10, 15 or 20 microM for 3 days. It is filed as cell-based, human. The text has this: (§1) Twenty-amino-acid sequence derived from minimized TSC1-binding domain in TBC1D7 (codons 112-171; see FIG. 5B) was covalently linked at its N-terminus to a membrane transducing 11 poly-arginine sequence (11R) as described elsewhere (Hayama S, Daigo Y, Kato T, et al. Cancer Res 2006; 66:10339-48, Hayama S, Daigo Y, Yamabuki T, et al. Cancer Res 2007; 67:4113-22). Three dominant-negative peptides were synthesized covering the codons 112-171 region: 11R-TBC112-131, RRRRRRRRRRR-GGG-[…] (SEQ ID NO.:23); 11R-TBC132-151, RRRRRRRRRRR-GGG-[…] (SEQ ID NO.:24); 11R-TBC152-171 RRRRRRRRRRR-GGG-[…] (SEQ ID NO.:25). Peptides were purified by preparative reverse-phase high-performance liquid chromatography to make >95% purity. […] The viability of cells was evaluated by MTT assay at 3 days after the treatment.

For data set [2], the system named is normal human lung fibroblast-derived CCD19Lu cells. It is filed as cell-based. The note with it: CCD19Lu cells in which TBC1D7 expression was hardly detectable, peptide 10, 15 or 20 microM for 3 days.
Text: as §1

The subject of another data set is TBC1D7. Put plainly: RNA interference assay: knockdown of TBC1D7 expression, semiquantitative RT-PCR. It is filed as cell-based, human. The note with it: LC319 and A549 cells; siRNA duplexes 100 nM transfected; versus control siRNAs (si-EGFP, si-LUC). How it is done:
Total RNA was extracted from cultured cells and clinical tissues using Trizol reagent (Life Technologies, Inc.) according to the manufacturer's protocol. Extracted RNAs were treated with DNase I (Nippon Gene) and reversely-transcribed using oligo (dT) primer and SuperScript II reverse transcriptase (Invitrogen). […]
(§2) Small interfering RNA (siRNA) duplexes (Dharmacon, Inc.) (100 nM) were transfected into a NSCLC cell line, A549 and esophageal cancer cell line, TE9, using […] Lipofectamine 2000 (Invitrogen) following the manufacturer's protocol. The transfected cells were cultured for 7 days, and the number of colonies was counted by Giemsa staining, and viability of cells was evaluated by 3-(4,5-dimethylthiazol-2-yl)-2,5-diphenyltetrazolium bromide (MTT) assay (cell counting kit-8 solution; Dojindo Laboratories), at 7 days after transfection. […]
(§3) Small interfering RNA (siRNA) duplexes (100 nM) were transfected into a NSCLC cell line, A549 and LC319, using 24 microL of Lipofectamine 2000 (Invitrogen) following the manufacturer's protocol. The transfected cells were cultured for 7 days, and the number of colonies was counted by Giemsa staining, and viability of cells was evaluated by 3-(4,5-dimethylthiazol-2-yl)-2,5-diphenyltetrazolium bromide (MTT) assay (cell counting kit-8 solution; Dojindo Laboratories), at 7 days after transfection. […]

Data set [3] deals with LC319 and A549 cell lines. Nature of the data set: MTT assay of lung cancer cells transfected with siRNAs against TBC1D7. It is filed as cell-based, human. Conditions: 7 days after transfection, siRNA 100 nM. How it is done: as §2, with “transfection. To confirm suppression of TBC1D7 expression, semiquantitative RT-PCR was carried out with synthesized primers specific for TBC1D7 described above. SiRNA duplexes against human TBC1D7, si-TBC1D7-#1: siGenome duplexes 1 [D-021140-01: […]] (SEQ ID NO: 3 for target sequence SEQ ID NO.: 18) and si-TBC1D7-#2: siGenome duplexes 4 [D-021140-4: […]]” for “transfection.”
as §3
(Tetrazolium assays rely on reduction of a dye to a coloured formazan, in cell work by metabolically active cells.)

Data set [4] concerns LC319 and A549 cell lines. Put plainly: Colony formation assay (Giemsa staining) of lung cancer cells transfected with siRNAs against TBC1D7. The data set is classed as cell-based, human. The note with it: cultured 7 days after transfection, siRNA 100 nM. How it is done:
as §2, with “transfection. To confirm suppression of TBC1D7 expression, semiquantitative RT-PCR was carried out with synthesized primers specific for TBC1D7 described above. SiRNA duplexes against human TBC1D7, si-TBC1D7-#1: siGenome duplexes 1 [D-021140-01: […]] (SEQ ID NO: 3 for target sequence SEQ ID NO.: 18) and si-TBC1D7-#2: siGenome duplexes 4 [D-021140-4: […]]” for “transfection.”
as §3

In data set [5] the test system is lung cancer LC319 cells. Put plainly: Flow cytometric cell cycle analysis after si-TBC1D7 transfection. The data set is classed as cell-based, human. Conditions: 48 to 96 hours after transfection. On the procedure:
Cells were collected in PBS, and fixed in 70% cold ethanol for 30 minutes. After treatment with 100 micro g/mL RNase (Sigma/Aldrich, St. Louis, Mo.), the cells were stained with 50 micro g/mL propidium iodide (Sigma/Aldrich, St. Louis, Mo.) in PBS. Flow cytometry was done on a Becton Dickinson FACScan and analyzed by ModFit software (Verity Software House, Inc., Topsham, Me.). The cells selected from at least 10,000 ungated cells were analyzed for DNA content.
(In general: A flow cytometer gives signals particle by particle.)

In data set [6] the target is T1, endogenous TSC1 protein (human, lung cancer LC319 cells) (human, UniProt Q92574 1-1164, limits assumed).
T1 construct: Endogenous protein in LC319 cell extracts
T1 sequence: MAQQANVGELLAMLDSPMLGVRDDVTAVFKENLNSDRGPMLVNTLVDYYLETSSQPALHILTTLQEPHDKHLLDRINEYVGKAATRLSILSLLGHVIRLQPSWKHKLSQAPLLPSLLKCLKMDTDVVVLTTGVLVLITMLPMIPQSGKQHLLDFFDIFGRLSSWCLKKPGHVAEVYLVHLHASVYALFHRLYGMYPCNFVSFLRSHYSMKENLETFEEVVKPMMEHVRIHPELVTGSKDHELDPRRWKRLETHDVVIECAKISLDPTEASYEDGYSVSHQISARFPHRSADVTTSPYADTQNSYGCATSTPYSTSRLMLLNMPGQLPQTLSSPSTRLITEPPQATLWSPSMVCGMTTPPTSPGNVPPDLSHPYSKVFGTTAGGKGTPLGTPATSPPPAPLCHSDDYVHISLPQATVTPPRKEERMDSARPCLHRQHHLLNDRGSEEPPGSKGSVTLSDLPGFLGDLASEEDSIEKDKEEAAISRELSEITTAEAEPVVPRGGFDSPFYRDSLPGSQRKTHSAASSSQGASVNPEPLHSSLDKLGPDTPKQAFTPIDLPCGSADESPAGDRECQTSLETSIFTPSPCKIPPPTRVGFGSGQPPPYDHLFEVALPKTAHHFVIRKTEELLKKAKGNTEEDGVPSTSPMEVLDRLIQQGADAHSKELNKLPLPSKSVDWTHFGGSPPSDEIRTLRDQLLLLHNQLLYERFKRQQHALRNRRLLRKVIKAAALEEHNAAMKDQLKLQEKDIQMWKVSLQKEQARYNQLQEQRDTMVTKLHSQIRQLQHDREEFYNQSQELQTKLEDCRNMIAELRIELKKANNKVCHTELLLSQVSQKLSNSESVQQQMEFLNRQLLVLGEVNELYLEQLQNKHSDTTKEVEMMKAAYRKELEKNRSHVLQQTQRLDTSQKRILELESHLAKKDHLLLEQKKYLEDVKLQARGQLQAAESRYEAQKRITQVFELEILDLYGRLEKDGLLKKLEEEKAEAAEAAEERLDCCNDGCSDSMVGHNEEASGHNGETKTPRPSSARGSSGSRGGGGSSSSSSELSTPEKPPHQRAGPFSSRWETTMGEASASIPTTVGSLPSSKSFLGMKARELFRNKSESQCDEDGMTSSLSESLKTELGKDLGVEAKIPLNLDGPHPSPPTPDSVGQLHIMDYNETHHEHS
Put plainly: summary of the immunoprecipitation results in the discussion.

Regarding “RRRRRRRRRRR-GGG-EVFLAIAKAMEEMVEDSVDC (RRRRRRRRRRRGGGEVFLAIAKAMEEMVEDSVDC; a dominant-negative peptide) [11R-TBC1D7132-151]”, in the data set on lung cancer LC319 cells [1], the “cell viability / cell growth, MTT assay” value is reported as “no effect on cell growth”.

As to “RRRRRRRRRRR-GGG-YQLESGKLPRSPSFPLEPDD (RRRRRRRRRRRGGGYQLESGKLPRSPSFPLEPDD; a dominant-negative peptide) [11R-TBC1D7112-131]”, in the data set on lung cancer LC319 cells [1], the “cell viability / cell growth, MTT assay” value was “no effect on cell growth”.

For “RRRRRRRRRRRGGGYWITRRFVNQLNTKYRDSLP [11R-TBC1D7152-171]”, the “cell viability of normal cells (off-target toxic effect), MTT assay” value in data set [2] is “no effect on cell viability”; in data set [2] (listed as 11R-TBC152-171), “no off-target effect”.

As for “si-TBC1D7-#1: siRNA duplex against human TBC1D7, GAACAGUGCAGAGAAGAUAUU (SEQ ID NO: 3, target SEQ ID NO: 18), purchased from Dharmacon (chemistry not given here)”, the “knockdown effect on TBC1D7 expression (RT-PCR)” value in the data set with TBC1D7 is reported as “knockdown effect was confirmed”. Further, in data set [3], the “number / viability of cells, MTT assay (cell growth)” value was “drastic reduction in the number of cells”. In data set [4], the “number of cells / colonies, colony-formation assay” value is listed as “drastic reduction in the number of cells”. In addition, in the data set with lung cancer LC319 cells [5], the “number of cells in S phase” value is recorded as “continuously decreased” and the “proportion of the cells in G2/M phase” value is on record as “increased”.

Turning to “si-TBC1D7-#2: siRNA duplex against human TBC1D7, GAUAAAGUUGUGAGUGGAUUU (SEQ ID NO: 4, target SEQ ID NO: 19), purchased from Dharmacon (chemistry not given here)”, the “knockdown effect on TBC1D7 expression (RT-PCR)” value with TBC1D7 is listed as “knockdown effect was confirmed”. Also, the “number / viability of cells, MTT assay (cell growth)” value in data set [3] is on record as “drastic reduction in the number of cells”. Besides, the “number of cells / colonies, colony-formation assay” value in data set [4] was “drastic reduction in the number of cells”.

B1: endogenous TBC1D7 protein (human, lung cancer LC319 cells) (other)
chain: MTEDSQRNFRSVYYEKVGFRGVEEKKSLEILLKDDRLDTEKLCTFSQRFPLPSMYRALVWKVLLGILPPHHESHAKVMMYRKEQYLDVLHALKVVRFVSDATPQAEVYLRMYQLESGKLPRSPSFPLEPDDEVFLAIAKAMEEMVEDSVDCYWITRRFVNQLNTKYRDSLPQLPKAFEQYLNLEDGRLLTHLRMCSAAPKLPYDLWFKRCFAGCLPESSLQRVWDKVVSGSCKILVFVAVEILLTFKIKVMALNSAEKITKFLENIPQDSSDAIVSKAIDLWHKHCGTPVHSS
notes: Endogenous protein in cell extracts; also called TBC1 domain family, member 7
As for B1, the binding result in data set [6] is given as “binds”.
